Measurements reported in paper PMC7238241, “Lack of Correlation between In Vitro and In Vivo Studies on the Inhibitory Effects of (‒)-Sophoranone on CYP2C9 Is Attributable to Low Oral Absorption and Extensive Plasma Protein Binding of (‒)-Sophoranone” (Pharmaceutics, 2020).
Where “and” joins values, the source holds several entries; their conditions need not be identical. Identical values can stand only once.

Assays:
[1] = molecular target: T1, CYP2C9 (Homo sapiens, UniProt P11712); assay: Reversible CYP2C9 inhibition, cocktail assay (tolbutamide 4-hydroxylase) in human liver microsomes; format: biochemical; details: human liver microsomes 0.1 mg/mL, tolbutamide probe, n = 3
T1 construct: tissue Corning Life Sciences; host or cells: pooled human liver microsomes, 150 donors
Method: (§1) The inhibitory effects of SPN on CYP1A2, CYP2A6, CYP2B6, CYP2C8, CYP2C9, CYP2C19, CYP2D6, CYP2E1, and CYP3A4 were evaluated in pooled human liver microsomes through the use of specific CYP probe substrates (cocktail assay), as previously described with a slight modification. Concentrations of each CYP probe in Table 1 were used close to their reported Km values.
Briefly, a 90-µL incubation mixture, including pooled human liver microsomes (final concentration 0.1 mg/mL), 50 mM phosphate buffer (pH 7.4), each CYP-probe substrate cocktail set, and SPN (0–50 μM), was pre-incubated for 5 min at 37 °C. SPN was dissolved in methanol and spiked into the incubation mixture to a final concentration of 0.5% methanol. […]
(§2) The IC50 values were calculated via nonlinear least-squares regression analysis from logarithmic plots of inhibitor concentration versus percentage of activity remaining after inhibition, using SigmaPlot (ver. 14.0; Systat Software Inc, Chicago, IL, USA). The Ki values were determined from the equations for a single substrate single inhibitor model and the software available in the SigmaPlot Enzyme Kinetics module. Competitive, non-competitive, uncompetitive, or mixed inhibition models were evaluated and ranked according to the best fit based on Akaike Information Criterion (AIC) values. […]

[2] = molecular target: T2, CYP2E1 (Homo sapiens, UniProt P05181); assay: Reversible CYP2E1 inhibition, cocktail assay (chlorzoxazone 6-hydroxylase) in human liver microsomes; format: biochemical
T2 construct: tissue Corning Life Sciences; host or cells: pooled human liver microsomes, 150 donors
Method: as §1
Briefly, a 90-µL incubation mixture, including pooled human liver microsomes (final concentration 0.1 mg/mL), 50 mM phosphate buffer (pH 7.4), each CYP-probe substrate cocktail set, and SPN (0–50 μM), was pre-incubated for 5 min at 37 °C. SPN was dissolved in methanol and spiked into the incubation mixture to a final concentration of 0.5% methanol. All P450-selective substrates (except coumarin due to solubility) were dissolved in methanol and serially diluted with methanol to the required concentrations, and the organic solvent was subsequently evaporated under a gentle stream of N2 gas to minimize the effects of organic solvents on CYP activities. On the other hand, coumarin dissolved in 50 mM phosphate buffer (pH 7.4) was directly added into the mixed tube. The reaction was initiated by adding 10-µL aliquot of NADPH-generating system (1.3 mM NADP^+, 3.3 mM glucose 6-phosphate, 3.3 mM MgCl2, and 0.4 unit/mL glucose-6-phosphate dehydrogenase) before 15 min incubation at 37 °C in a shaking water bath. […]
as §2

[3] = Bi-directional Caco-2 cell permeability; format: in vitro ADME; details: human, Caco-2
Method: (§3) Caco-2 cell permeability was assessed to predict the oral absorption of SPN. Cell culture and transport studies were performed as previously described. Briefly, for the bi-directional transport studies, the cells were seeded at a density of 1 × 10^5 cells/well, and the cell medium was replaced until they formed confluent monolayers. On the 25th day, the cell monolayers were washed with pre-warmed HBSS buffer. […] Before the experiment, the integrity of the cell monolayers was evaluated by measuring the transepithelial electrical resistance using a Millicell ohmmeter. After 2 h incubation at 37 °C, samples were withdrawn from both sides, respectively. All samples were stored at −80 °C until LC-MS/MS analysis, and all experiments were performed in triplicate.
(§4) The apparent permeability coefficient (Papp) was calculated using the following equation. Papp = (Vr/C0) × (1/A) × ([Drug]/t) where, Vr is the volume of medium in the receiver chamber, C0 is the donor compartment concentration at time zero, A is the area of the cell monolayer, t is the treatment time of the drug, and [Drug] is the drug concentration in the receiver chamber.

[4] = test system: Caco-2 cells; assay: Bi-directional Caco-2 cell permeability; format: in vitro ADME
Method: as §3, §4

[5] = Unbound fraction in human liver microsomes (rapid equilibrium dialysis); format: in vitro ADME; details: microsomal protein 0.1 mg/mL, n = 3
Method: The human liver microsomal incubation mixtures (final concentration 0.1 mg/mL) without NADPH generating system were used to determine the unbound fraction of SPN. Other procedures were similar to those of plasma protein binding assay.

[6] = molecular target: T3, CYP3A4 (Homo sapiens, UniProt P08684); assay: Inhibition of CYP3A4-catalyzed testosterone 6β-hydroxylation; format: biochemical; details: data not shown
T3 construct: tissue Corning Life Sciences; host or cells: pooled human liver microsomes, 150 donors
Source text: The reversible inhibition of SPN-mediated CYP3A4 activity was less consistent with the published literature. […] They only focused on the in vitro inhibitory potentials of several flavonoids against CYP3A4 activity. To the best of our knowledge, to date, bufalin has not been used as the in vitro probe substrate for the CYP3A4 activity, and the reference material of 5′-hydroxybufalin is not commercially available. Because of the presence of several binding regions within the CYP3A4 active site, multiple probe substrates are often used for in vitro CYP3A4-mediated drug–drug interaction studies, including midazolam, nifedipine, and testosterone. […] Altogether, the in vitro CYP3A4 inhibition by SPN seemed to be substrate-specific.

[7] = Effects of SPN on the pharmacokinetics of diclofenac in rats; details: rats
Method: The carotid arteries of each rat were cannulated with a polyethylene tube (Clay Adams, Franklin Lakes, NJ, USA) for blood sampling. Each rat was individually housed in a rat metabolic cage and allowed to recover from anesthesia for 4–5 h prior to the start of the experiment. […] SPN was suspended in dimethylsulfoxide:PEG400:distilled water (5:60:35, v/v/v) and administered by oral gavage at a dose of 75 mg/kg in a volume of 5 mL/kg. […] The blood samples were immediately centrifuged at 13,000× g for 5 min at 4 °C. The plasma samples were divided into two Eppendorf tubes by 50 μL and stored at −80 °C until LC-MS/MS analysis.
Briefly, 50 μL aliquots of plasma were extracted with 300 μL aliquots of acetonitrile containing chlorpropamide (internal standard), followed by LC-MS/MS (Shimadzu Corporation). Chromatographic separation was performed on a Phenomenex Luna C18 column (100 × 2.00 mm; 3.0 μm). The isocratic mobile phase consisted of 0.1% formic acid in distilled water (A) and 0.1% formic acid in acetonitrile (B) (45:55, v/v), with a flow rate of 0.3 mL/min. […] The data acquisition was computed using LabSolutions LCMS Ver.5.6 (Shimadzu Corporation).
Pharmacokinetic parameters were calculated by a non-compartmental analysis using WinNonlin Professional software (version 5.2, Pharsight Corp., Mountain View, CA, USA) that used the total area under the plasma concentration–time curve from time zero to infinity (AUC∞) or the last measured time (AUCt). The logarithmic trapezoidal rule was used during the declining plasma level phase and the linear trapezoidal rule was used for the rising plasma-level phase. The peak plasma concentration (Cmax) and time to reach Cmax (Tmax) were read directly from the experimental data. Statistically significant differences were recognized at p < 0.05.

T2 sequence (P05181 whole entry): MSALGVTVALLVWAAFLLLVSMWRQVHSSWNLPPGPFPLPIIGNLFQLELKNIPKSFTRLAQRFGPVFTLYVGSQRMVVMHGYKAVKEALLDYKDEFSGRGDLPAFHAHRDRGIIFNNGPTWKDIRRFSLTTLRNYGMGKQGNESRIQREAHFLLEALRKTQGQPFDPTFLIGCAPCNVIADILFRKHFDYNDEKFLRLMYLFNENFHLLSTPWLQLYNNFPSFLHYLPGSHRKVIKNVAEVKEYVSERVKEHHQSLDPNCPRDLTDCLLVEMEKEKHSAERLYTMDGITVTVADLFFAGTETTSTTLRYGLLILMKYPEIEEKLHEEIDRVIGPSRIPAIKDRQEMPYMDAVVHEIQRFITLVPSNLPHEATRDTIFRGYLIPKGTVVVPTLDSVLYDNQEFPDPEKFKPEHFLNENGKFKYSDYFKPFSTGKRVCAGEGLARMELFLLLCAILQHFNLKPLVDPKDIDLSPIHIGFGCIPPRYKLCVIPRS
T3 sequence (P08684 whole entry): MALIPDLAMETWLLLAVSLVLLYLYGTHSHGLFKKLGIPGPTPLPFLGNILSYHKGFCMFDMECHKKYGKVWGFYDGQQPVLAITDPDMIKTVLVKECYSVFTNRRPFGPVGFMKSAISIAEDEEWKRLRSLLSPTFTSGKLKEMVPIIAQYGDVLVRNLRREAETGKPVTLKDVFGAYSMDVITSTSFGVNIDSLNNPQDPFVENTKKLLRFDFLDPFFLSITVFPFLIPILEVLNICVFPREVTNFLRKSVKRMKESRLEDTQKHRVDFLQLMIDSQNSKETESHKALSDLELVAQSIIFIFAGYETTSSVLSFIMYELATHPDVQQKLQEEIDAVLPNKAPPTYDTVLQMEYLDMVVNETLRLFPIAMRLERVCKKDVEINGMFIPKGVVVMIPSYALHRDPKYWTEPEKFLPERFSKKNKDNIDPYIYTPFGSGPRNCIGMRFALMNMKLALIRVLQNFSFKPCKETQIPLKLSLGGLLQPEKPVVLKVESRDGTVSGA
T1 sequence (P11712 whole entry): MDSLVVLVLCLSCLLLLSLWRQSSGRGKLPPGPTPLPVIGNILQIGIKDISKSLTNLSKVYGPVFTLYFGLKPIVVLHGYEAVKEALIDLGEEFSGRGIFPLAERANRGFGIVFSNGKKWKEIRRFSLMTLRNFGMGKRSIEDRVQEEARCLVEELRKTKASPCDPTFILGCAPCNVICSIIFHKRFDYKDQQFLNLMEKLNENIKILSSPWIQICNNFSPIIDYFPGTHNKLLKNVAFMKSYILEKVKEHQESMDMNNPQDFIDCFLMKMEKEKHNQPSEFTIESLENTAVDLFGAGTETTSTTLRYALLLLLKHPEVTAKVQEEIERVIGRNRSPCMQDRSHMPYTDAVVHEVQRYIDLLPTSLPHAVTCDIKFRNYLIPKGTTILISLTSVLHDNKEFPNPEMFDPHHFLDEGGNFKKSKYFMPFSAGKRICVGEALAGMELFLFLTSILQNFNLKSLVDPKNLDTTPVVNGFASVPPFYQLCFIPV

IC50 [1]: 0.966 ± 0.149 µM
residual enzyme activity, CYP2E1 ([2]; at the highest tested concentration (50 μM)): greater than 80%
IC50 ([2]; human liver microsomes 0.1 mg/mL, cocktail assay, chlorzoxazone probe, n = 3, read-out: IC50 Values, CYP2E1): > 50 µM
Papp A→B at 2 h, 10 µM ([3]; 10 μM, 2 h, n = 3): 0.115 ± 0.0369 ×10⁻⁶ cm/s
Papp B→A at 2 h, 10 µM ([3]; 10 μM, 2 h, n = 3): 0.101 ± 0.00444 ×10⁻⁶ cm/s
Papp A→B at 2 h, 50 µM ([3]; 50 μM, 2 h, n = 3): 0.172 ± 0.0488 ×10⁻⁶ cm/s
Papp B→A at 2 h, 50 µM ([3]; 50 μM, 2 h, n = 3): 0.152 ± 0.0353 ×10⁻⁶ cm/s
efflux ratio at 2 h ([3]; not a substrate for P-gp and BCRP, read-out: efflux ratio (B-to-A/A-to-B)): < 2
Papp A-to-B as % of propranolol Papp ([4]; 10 μM): 0.429%
Papp A-to-B as % of propranolol Papp ([4]; 50 μM): 0.642%
fraction unbound at 4 h, 10 µM ([5]; 10 μM): 0.00621 ± 0.000405
fraction unbound at 4 h, 50 µM ([5]; 50 μM): 0.00724 ± 0.0017
IC50 [6]: 31.5 ± 4.79 µM
Cmax ([7]; male, Sprague-Dawley, rat, plasma, po, Cmax of SPN, oral SPN 75 mg/kg co-administered with diclofenac 2 mg/kg, n = 6): 33.7 ng/mL and 73.2 nM
Imax,u (unbound maximum concentration in plasma) ([7]; oral SPN 75 mg/kg, Cmax corrected for plasma protein binding): 0.0420 ± 0.0184 nM
SMILES: CC(C)=CCc1cc([C@@H]2CC(=O)c3ccc(O)c(CC=C(C)C)c3O2)cc(CC=C(C)C)c1O [SPN, (‒)-Sophoranone]
effect of co-administration on the pharmacokinetics of diclofenac and 4′-hydroxydiclofenac ([7]; oral SPN 75 mg/kg 15 min before oral diclofenac 2 mg/kg): did not alter the pharmacokinetics of diclofenac and 4′-hydroxydiclofenac
